Among the data in patent US11427548B2 (Arvinas Operations, Inc., priority 2015, dated 2022) are DC50 and Dmax values, retold here.

Where two headings read alike, the source gives them in different places.

For the assay, the target named is T1, Androgen Receptor (Homo sapiens, UniProt P10275).
T1 construct: endogenous in cells; host or cells: VCaP cells
T1 sequence (P10275 1-920): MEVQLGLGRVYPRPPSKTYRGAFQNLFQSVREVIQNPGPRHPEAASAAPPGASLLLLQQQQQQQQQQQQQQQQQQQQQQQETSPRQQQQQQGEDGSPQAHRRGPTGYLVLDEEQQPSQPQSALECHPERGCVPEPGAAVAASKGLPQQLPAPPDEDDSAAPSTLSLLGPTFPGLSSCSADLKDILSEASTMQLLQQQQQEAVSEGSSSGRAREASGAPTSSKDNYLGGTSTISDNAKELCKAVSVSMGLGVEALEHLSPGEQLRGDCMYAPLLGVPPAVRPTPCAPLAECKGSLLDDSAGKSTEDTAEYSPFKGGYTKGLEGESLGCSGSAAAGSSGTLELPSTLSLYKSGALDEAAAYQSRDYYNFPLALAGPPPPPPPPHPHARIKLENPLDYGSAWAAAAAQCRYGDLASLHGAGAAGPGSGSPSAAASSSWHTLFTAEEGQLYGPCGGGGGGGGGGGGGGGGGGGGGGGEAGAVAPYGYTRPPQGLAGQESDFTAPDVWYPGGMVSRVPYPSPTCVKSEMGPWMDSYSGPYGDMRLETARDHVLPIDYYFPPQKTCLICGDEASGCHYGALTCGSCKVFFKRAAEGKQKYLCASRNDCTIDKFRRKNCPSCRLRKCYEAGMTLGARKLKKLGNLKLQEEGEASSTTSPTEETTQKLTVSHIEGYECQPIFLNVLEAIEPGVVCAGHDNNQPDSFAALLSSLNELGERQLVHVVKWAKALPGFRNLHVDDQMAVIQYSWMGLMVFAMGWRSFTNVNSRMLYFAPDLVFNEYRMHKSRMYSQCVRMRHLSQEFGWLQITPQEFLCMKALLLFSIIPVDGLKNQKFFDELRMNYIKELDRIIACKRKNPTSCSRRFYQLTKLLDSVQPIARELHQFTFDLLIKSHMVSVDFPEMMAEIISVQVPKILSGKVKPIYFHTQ
In words: Androgen Receptor ELISA assay (PathScan AR ELISA) in VCaP cells: AR degradation, Dmax and DC50. Format: cell-based. On the procedure: 1. Androgen Receptor ELISA Assay.
The protocols used with VCaP cells are described below. The androgen receptor ELISA assay was performed using PathScan AR ELISA (Cell Signaling Catalog #12850) according to the following assay steps:
VCaP cells are seeded at 30,000 cells/well at a volume of 200 μL/well in VCaP assay medium [Phenol red free RPMI (Gibco Cat #11835-030); 5% Charcoal Stripped (Dextran treated) FBS (Omega Scientific, Cat #FB-04); Pen/Strep Life Technologies (Gibco Cat #: 10378-016); 0.1 nM R1881 (Sigma, Cat #R0908) is added upon the start of the assay, not during initial plating of the cells) in Corning 3904 plates. The cells are grown for a minimum of 3 days.
First, cells are dosed with compounds diluted in 0.1% DMSO—use a polypropylene plate according to the following protocol: (1)(i) make 1000× stock plate in DMSO; (ii) 20 mM stock diluted 1/6.7 with DMSO (5 μL+28.3 μL DMSO)=3 mM into row H; (iii) perform serial dilutions in ½ log doses (10 μL of PROTAC+20 μL DMSO) from row H towards row B. Reserve row A for DMSO; (iv) 7 doses total (final concentration in this 1000× plate will be 3 mM, 1 mM, 333 μM, 111 μM, etc). (2)(i) Make 10× stock plate in media; (ii) transfer 2.5 μL of the 1000× stock to a new 10× stock plate (use 12 channel pipet, start at A (DMSO control) work thru H. When 247.5 μL of media is added to this plate, it will serve as a 10× stock; (iii) make media+1 nM R1881 for making 10× stock plate; (iv) add 247.5 μL of media with 1 nM R1881 to each well of the 10× stock plate, mix.
Then 22 μL of 10× stock is added to cells and incubated for 24 h. 1× Cell Signaling Cell lysis buffer is made (Catalogue #9803; comes with the kit)—prepare for 50 μL/well. Keep on ice. Media is aspirated, and 50 μL 1× cell lysis buffer/well is added. The cells are placed on ice for 10 minutes. The solution is mixed and transferred to PCR plate, and centrifuged at 4C for 10 minutes at 4000 rpm.
5 μL is transferred to fresh plate (use immediately or freeze −80 C); 115 μL ELISA Dilutant is added (0.15 ug/ml-0.075 ug/ml; comes with the PathScan ELISA).
Add 100 μL/well AR Elisa; cover and shake, 37 C for 2 hrs; dump, tap, wash 4×200 μL ELISA wash buffer; add 100 μL/well mouse AR detection Ab; cover and shake, 37 C for 1 hr; dump, tap, wash 4×200 μL ELISA wash buffer; add 100 μL/well anti-mouse—HRP conjugated Ab (comes with the kit); cover and shake, 37 C for 30 min; allow TMB reagent to come to room temperature; dump, tap, wash 4×200 μL Elisa wash buffer; tap; add 100 μL TMB, shake 5 min—while watching color. Add the stop reagent when light blue color develops. Add 100 μL Stop solution; shake and read at 450 nm.
In general terms: In an ELISA, binding on a coated surface is turned into a signal by an enzyme label.

[1] abbreviates: read-out: VCaP DC50; concentration that caused 50% Androgen Receptor degradation, VCaP cells.

With `CC(C)(C)[C@H](NC(=O)COCCCOCCCCCOc1ccc(N2C(=S)N(c3ccc(C#N)c(C(F)(F)F)c3)C(=O)C2(C)C)cc1)C(=O)N1C[C@H](O)C[C@H]1C(=O)NCc1ccc(Cl)cc1` [Example 14, (2S,4R)-N-[(4-chlorophenyl)methyl]-1-[(2S)-2-[2-(3-{[5-(4-{3-[4-cyano-3-(trifluoromethyl)phenyl]-5,5-dimethyl-4-oxo-2-sulfanylideneimidazolidin-1-yl}phenoxy)pentyl]oxy}propoxy)acetamido]-3,3-dimethylbutanoyl]-4-hydroxypyrrolidine-2-carboxamide], the 50% degradation concentration (DC50) (usually the concentration at which degradation of the target reaches its halfway point) under setting [1] was above 501 nM.

`CC(C)(C)[C@H](NC(=O)COCCCOCCCCCOc1ccc(N2C(=S)N(c3ccc(C#N)c(C(F)(F)F)c3)C(=O)C2(C)C)cc1)C(=O)N1C[C@H](O)C[C@H]1C(=O)NCc1ccc(C#N)cc1` [Example 15, (2S,4R)-1-[(2S)-2-[2-(3-{[5-(4-{3-[4-cyano-3-(trifluoromethyl)phenyl]-5,5-dimethyl-4-oxo-2-sulfanylideneimidazolidin-1-yl}phenoxy)pentyl]oxy}propoxy)acetamido]-3,3-dimethylbutanoyl]-N-[(4-cyanophenyl)methyl]-4-hydroxypyrrolidine-2-carboxamide]: where the note is “VCaP, read-out: VCaP Dmax (%)”, the maximal degradation (Dmax) (commonly the largest share of the target that was removed) is 26 to 50%. Under setting [1], the half-maximal degradation concentration (DC50) is below 50 nM.

Turning to `Cc1ncsc1-c1ccc(CNC(=O)[C@@H]2C[C@@H](O)CN2C(=O)[C@@H](NC(=O)COCCOCCOCCOc2ccc(N3C(=S)N(c4ccc(C#N)c(C(F)(F)F)c4)C(=O)C3(C)C)cc2)C(C)(C)C)cc1` [Example 16, (2S,4R)-1-[(2S)-2-[2-(2-{2-[2-(4-{3-[4-cyano-3-(trifluoromethyl)phenyl]-5,5-dimethyl-4-oxo-2-sulfanylideneimidazolidin-1-yl}phenoxy)ethoxy]ethoxy}ethoxy)acetamido]-3,3-dimethylbutanoyl]-4-hydroxy-N-{[4-(4-methyl-1,3-thiazol-5-yl)phenyl]methyl}pyrrolidine-2-carboxamide], the maximal degradation (Dmax) (VCaP, read-out: VCaP Dmax (%)) is 26 to 50%.

On to `Cc1ncsc1-c1ccc(CNC(=O)[C@@H]2C[C@@H](O)CN2C(=O)[C@@H](NC(=O)COCCCCOCCCCOc2ccc(N3C(=S)N(c4ccc(C#N)c(C(F)(F)F)c4)C(=O)C3(C)C)cc2F)C(C)(C)C)cc1` [Example 26, (2S,4R)-1-[(2S)-2-(2-{4-[4-(4-{3-[4-cyano-3-(trifluoromethyl)phenyl]-5,5-dimethyl-4-oxo-2-sulfanylideneimidazolidin-1-yl}-2-fluorophenoxy)butoxy]butoxy}acetamido)-3,3-dimethylbutanoyl]-4-hydroxy-N-{[4-(4-methyl-1,3-thiazol-5-yl)phenyl]methyl}pyrrolidine-2-carboxamide], for which the Dmax (VCaP, read-out: VCaP Dmax (%)) is 51 to 70%. The 50% degradation concentration (DC50) under setting [1] is below 50 nM.

As for `CC(C)(C)[C@H](NC(=O)COCCCOCCCCOc1ccc(N2C(=S)N(c3ccc(C#N)c(C(F)(F)F)c3)C(=O)C2(C)C)cc1)C(=O)N1C[C@H](O)C[C@H]1C(=O)NCc1ccc(-c2cncs2)cc1` [Example 33, (2S,4R)-1-[(2S)-2-(2-{3-[4-(4-{3-[4-cyano-3-(trifluoromethyl)phenyl]-5,5-dimethyl-4-oxo-2-sulfanylideneimidazolidin-1-yl}phenoxy)butoxy]propoxy}acetamido)-3,3-dimethylbutanoyl]-4-hydroxy-N-{[4-(1,3-thiazol-5-yl)phenyl]methyl}pyrrolidine-2-carboxamide], the greatest degradation seen (Dmax) (VCaP, read-out: VCaP Dmax (%)) lay within 51 to 70%. The DC50 under setting [1] was below 50 nM.

On to `CC(C)(C)[C@H](NC(=O)COCCCOCCCCOc1ccc(N2C(=S)N(c3ccc(C#N)c(C(F)(F)F)c3)C(=O)C2(C)C)cc1)C(=O)N1C[C@H](O)C[C@H]1C(=O)NCc1ccc(-c2cnco2)cc1` [Example 34, (2S,4R)-1-[(2S)-2-(2-{3-[4-(4-{3-[4-cyano-3-(trifluoromethyl)phenyl]-5,5-dimethyl-4-oxo-2-sulfanylideneimidazolidin-1-yl}phenoxy)butoxy]propoxy}acetamido)-3,3-dimethylbutanoyl]-4-hydroxy-N-{[4-(l,3-oxazol-5-yl)phenyl]methyl}pyrrolidine-2-carboxamide], for which the greatest degradation seen (Dmax) (VCaP, read-out: VCaP Dmax (%)) is above 71%. Also, under setting [1], the 50% degradation concentration (DC50) was below 50 nM.

`Cc1ncoc1-c1ccc(CNC(=O)[C@@H]2C[C@@H](O)CN2C(=O)[C@@H](NC(=O)COCCCOCCCCOc2ccc(N3C(=S)N(c4ccc(C#N)c(C(F)(F)F)c4)C(=O)C3(C)C)cc2)C(C)(C)C)cc1` [Example 35, (2S,4R)-1-[(2S)-2-(2-{3-[4-(4-{3-[4-cyano-3-(trifluoromethyl)phenyl]-5,5-dimethyl-4-oxo-2-sulfanylideneimidazolidin-1-yl}phenoxy)butoxy]propoxy}acetamido)-3,3-dimethylbutanoyl]-4-hydroxy-N-{[4-(4-methyl-1,3-oxazol-5-yl)phenyl]methyl}pyrrolidine-2-carboxamide]: the Dmax (VCaP, read-out: VCaP Dmax (%)) is 51 to 70%. Also, the DC50 under setting [1] was below 50 nM.

Take `CC(C)[C@H](NC(=O)COCCCOCCCCOc1ccc(N2C(=S)N(c3ccc(C#N)c(Cl)c3)C(=O)C2(C)C)cc1)C(=O)N1C[C@H](O)C[C@H]1C(=O)NCc1ccc(-c2cncs2)cc1` [Example 36]: the Dmax (VCaP, read-out: VCaP Dmax (%)) lay within 26 to 50%. In addition, the half-maximal degradation concentration (DC50) under setting [1] is below 50 nM.

Take `Cc1ncsc1-c1ccc(CNC(=O)[C@@H]2C[C@@H](O)CN2C(=O)[C@@H](NC(=O)COCCCOCCCCOc2ccc(N3C(=S)N(c4cnc(C#N)c(Cl)c4)C(=O)C3(C)C)cc2)C(C)(C)C)cc1` [Example 37, (2S,4R)-1-[(2S)-2-{2-[3-(4-{4-[3-(5-chloro-6-cyanopyridin-3-yl)-5,5-dimethyl-4-oxo-2-sulfanylideneimidazolidin-1-yl]phenoxy}butoxy)propoxy]acetamido}-3,3-dimethylbutanoyl]-4-hydroxy-N-{[4-(4-methyl-1,3-thiazol-5-yl)phenyl]methyl}pyrrolidine-2-carboxamide]: the greatest degradation seen (Dmax) (VCaP, highest percentage of Androgen Receptor degradation observed, VCaP cells; read-out: VCaP Dmax (%)) is above 71%. Moreover, for the setting “concentration that caused 50% Androgen Receptor degradation, VCaP cells; read-out: VCaP DC50”, the half-maximal degradation concentration (DC50) is below 50 nM.

For the compound `Cc1ncoc1-c1ccc(CNC(=O)[C@@H]2C[C@@H](O)CN2C(=O)[C@@H](NC(=O)COCCCOCCCCOc2ccc(N3C(=S)N(c4ccc(C#N)c(Cl)c4)C(=O)C3(C)C)cc2)C(C)(C)C)cc1` [Example 38, (2S,4R)-1-[(2S)-2-{2-[3-(4-{4-[3-(3-chloro-4-cyanophenyl)-5,5-dimethyl-4-oxo-2-sulfanylideneimidazolidin-1-yl]phenoxy}butoxy)propoxy]acetamido}-3,3-dimethylbutanoyl]-4-hydroxy-N-{[4-(4-methyl-1,3-oxazol-5-yl)phenyl]methyl}pyrrolidine-2-carboxamide], the greatest degradation seen (Dmax) (VCaP, read-out: VCaP Dmax (%)) lay in the range of 51 to 70%. Besides, under setting [1], the half-maximal degradation concentration (DC50) is below 50 nM.
